Measured values from PMC11721924, “Discovery of LAH-1 as potent c-Met inhibitor for the treatment of non-small cell lung cancer” (Journal of Enzyme Inhibition and Medicinal Chemistry, 2023).
pIC50: −log10 of the molar value. Like-named read-outs stand apart in the source and are kept apart here.

Legend:
SBC-5 cells = assay: Cell proliferation assay (CCK-8); assay type: cell-based; conditions: Homo sapiens, 72 h
Description: (§1) Considering increased c-Met activity has been implicated in multiple tumour cells, we evaluated the half maximal inhibitory concentration (IC50) of LAH-1 in several cancer cell lines which harbour different levels of Met genetic alteration, these include human lung squamous cell carcinoma EBC-1, human gastric cancer line Hs746T, human oesophageal adenocarcinoma cell line OE33, human small-cell lung cancer SBC-5, and human glioblastoma cell U87MG.
(§2) EBC-1, Hs746T, OE33, SBC-5, U87MG, HT-1080 cell lines were purchased from ATCC, RIKEN, ECACC or JCRB. The antiproliferative activities of LAH-1 against these cells were assessed by CCK-8 assay according to the manufacturer’s protocol. Briefly, cells were seeded in 96-well plate at different density. 3-fold serial diluted compound or DMSO control was added to each well. After 72 h incubation, CCK-8 was added and incubated for another 2 h. The optical density of each well was read by microplate reader (Biotech, Shanghai, China). IC50 values were calculated by GraphPad Prism.

U87MG cells = assay: Cell proliferation assay (CCK-8); assay type: cell-based; conditions: Homo sapiens, U-87 MG, 72 h
Description: as §1, §2

EBC-1 cells [1] = assay: Cell proliferation assay (CCK-8); assay type: cell-based; conditions: Homo sapiens, 72 h
Description: as §1, §2

Hs746T cells = assay: Cell proliferation assay (CCK-8); assay type: cell-based; conditions: Homo sapiens, 72 h
Description: as §1, §2

OE33 cells = assay: Cell proliferation assay (CCK-8); assay type: cell-based; conditions: Homo sapiens, 72 h
Description: as §1, §2

WI-38 cells = assay: Antiproliferative inhibition, normal fibroblasts; assay type: cell-based; conditions: Homo sapiens
EBC-1 cells [2] = assay: Colony formation; assay type: cell-based, human; conditions: EBC-1, 14 days treatment, especially at 20 μM
Description: (§3) To investigate the effect of LAH-1 on colony formation ability, the EBC-1 cells which harbouring Met amplification were treated with different concentrations of LAH-1. […] Considering the important role of HGF/c-Met signalling in promoting cancer cell migration and invasion, the NCI-H441 cells with elevated expression level of c-Met was used. After treatment with HGF in the presence of LAH-1, the migratory and invasive abilities of NCI-H441 cells were determined.
EBC-1 cells were trypsinized and approximately 2000 cells were plated on 6-well plates. 14 days later, visible colonies were fixed and stained with 0.1% crystal violet. The number of colonies was quantified by Image J software (Developed by National Institutes of Health). A group of >50 cells was defined as one colony. All experiments were performed in duplicate wells.

NCI-H441 cells [3] = assay: HGF-induced cell invasion (transwell); assay type: cell-based; conditions: HGF 100 ng/mL, 28 h
Description: as §3
(§4) NCI-H441 cells in log growth phase were suspended in serum-free medium at a density of 150,000 cells per well and then seeded in 24-well transwell plates ([8] μm; Corning). Designated control or LAH-1 treated cells were added to each migration or invasion chamber and incubated for 28 h. Additionally, HGF (100 ng/mL) was added to the lower well of each companion plate to attract cells from migration or invasion chamber plate inserts at the top of the companion plate. The invaded or migrated cells to the lower wells were then fixed and stained with crystal violet. Images were taken by Olympus BX51 microscope.

NCI-H441 cells [4] = assay: HGF-induced cell migration (transwell); assay type: cell-based; conditions: HGF 100 ng/mL, 28 h
Description: as §3, §4

EBC-1 cells [5] = assay: Annexin V-FITC/PI dual staining apoptosis assay; assay type: cell-based, human; conditions: EBC-1, 24 h; untreated group 1.42%
Description: To determine whether the observed cell death was due to physiological apoptosis, Annexin V FITC/PI dual staining assay was conducted. EBC-1cells were treated with LAH-1 at different concentrations for 24 h to examine the effect on apoptosis.
The effect of LAH-1 on EBC-1 cells apoptosis was determined by Annexin V-FITC/PI apoptosis detection kit (BD Bioscience, Cat. No. 556547). Briefly, 300,000 EBC-1 cells were seeded in 6-well plate. After treatment with or without LAH-1 for 24 h, cells were collected, stained by FITC in binding buffer preventing from light, and then labelled by PI (absin, Cat. No. abs50005-50T). The apoptotic cells were analysed by flow cytometer Cytoflex S (Beckman Coulter).

In vivo pharmacokinetics = assay: In vivo pharmacokinetics; parameters: species or system SD rats
Description: (§5) Having characterised LAH-1 as a potent c-Met inhibitor, the ADME properties and PK parameters were further determined. […] Additionally, Egg-PAMPA (Parallel artificial membrane permeability assay) confirmed LAH-1 as membrane permeable, with permeability rates (Pe) of 3.4 nm/s. […] Next, LAH-1 was further progressed into in vivo PK studies.
PK parameters of LAH-1 was determined in SD rats (male, n = 3 per group) weighing (200–240 g), which were obtained from SpePharm (Beijing) Biotechnology Co., Ltd. Briefly, rats were fasted overnight before dosing, LAH-1 was given as a solution in 10% DMSO with 90% Saline for intravenously (5 mg/kg) and 0.1% PEG400 in 0.5% CMC-Na in water for PO (20 mg/kg). Each rat received 2 or 10 ml of the dosing solution/kg of body weight by intravenous injection and by gavage, respectively. Blood sample was collected at 0.033 (iv only), 0.083, 0.25, 0.5,1, 2, 4, 6, 8, 12 and 24 h after dosing and stored in ice (0–4 °C). Plasma was separated by centrifugation within 15 min post sampling. Levels of LAH-1 in blood were determined by 6500+ Triple Quad LC-MS/MS System (AB SCIEX LLC, CA, USA). The PK parameters were calculated with WinNonlin software using noncompartmental analysis.

HT-1080 cells = assay: Cell proliferation assay (CCK-8); assay type: cell-based, human
Description: as §1, §2

KDR = KDR (Homo sapiens, UniProt P35968); assay: Kinase profile, KDR; conditions: 300 nM
KDR, sequence (P35968 20-1356, species assumed): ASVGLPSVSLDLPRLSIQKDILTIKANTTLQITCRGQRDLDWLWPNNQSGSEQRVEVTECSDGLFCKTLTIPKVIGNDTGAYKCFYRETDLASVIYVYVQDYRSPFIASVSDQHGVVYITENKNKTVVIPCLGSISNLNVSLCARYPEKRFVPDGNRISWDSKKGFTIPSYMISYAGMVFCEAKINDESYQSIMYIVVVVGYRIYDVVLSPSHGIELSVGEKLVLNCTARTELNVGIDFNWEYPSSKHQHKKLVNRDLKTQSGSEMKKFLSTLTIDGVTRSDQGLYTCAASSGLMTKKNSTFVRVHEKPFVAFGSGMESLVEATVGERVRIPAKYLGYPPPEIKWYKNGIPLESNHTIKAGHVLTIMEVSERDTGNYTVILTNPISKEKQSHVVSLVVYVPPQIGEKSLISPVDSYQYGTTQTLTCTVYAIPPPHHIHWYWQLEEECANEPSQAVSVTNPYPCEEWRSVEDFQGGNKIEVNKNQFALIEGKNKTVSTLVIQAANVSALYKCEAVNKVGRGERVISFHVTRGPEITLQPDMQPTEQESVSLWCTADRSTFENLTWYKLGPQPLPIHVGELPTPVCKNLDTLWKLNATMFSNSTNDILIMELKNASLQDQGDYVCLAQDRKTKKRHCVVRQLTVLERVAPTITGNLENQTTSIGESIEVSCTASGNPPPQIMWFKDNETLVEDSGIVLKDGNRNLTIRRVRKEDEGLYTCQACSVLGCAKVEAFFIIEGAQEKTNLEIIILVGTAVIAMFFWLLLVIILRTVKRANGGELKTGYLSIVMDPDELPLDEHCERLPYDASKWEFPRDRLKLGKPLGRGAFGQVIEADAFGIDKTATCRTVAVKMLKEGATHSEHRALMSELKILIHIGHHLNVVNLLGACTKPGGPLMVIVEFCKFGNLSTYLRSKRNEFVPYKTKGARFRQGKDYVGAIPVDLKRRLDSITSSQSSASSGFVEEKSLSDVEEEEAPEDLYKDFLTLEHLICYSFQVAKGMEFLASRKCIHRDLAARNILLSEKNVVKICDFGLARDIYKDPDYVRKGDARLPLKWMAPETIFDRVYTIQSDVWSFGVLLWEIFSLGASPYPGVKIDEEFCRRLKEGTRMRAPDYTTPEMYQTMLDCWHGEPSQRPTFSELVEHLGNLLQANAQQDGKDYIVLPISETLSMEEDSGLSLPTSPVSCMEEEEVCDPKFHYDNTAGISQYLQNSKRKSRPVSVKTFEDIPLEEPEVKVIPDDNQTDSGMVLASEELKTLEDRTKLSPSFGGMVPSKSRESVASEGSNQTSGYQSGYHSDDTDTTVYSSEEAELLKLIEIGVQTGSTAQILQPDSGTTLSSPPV

CYP3A4 = CYP3A4 (Homo sapiens, UniProt P08684); assay: CYP450 inhibition assay; assay type: in vitro ADME
CYP3A4, sequence (P08684 whole entry): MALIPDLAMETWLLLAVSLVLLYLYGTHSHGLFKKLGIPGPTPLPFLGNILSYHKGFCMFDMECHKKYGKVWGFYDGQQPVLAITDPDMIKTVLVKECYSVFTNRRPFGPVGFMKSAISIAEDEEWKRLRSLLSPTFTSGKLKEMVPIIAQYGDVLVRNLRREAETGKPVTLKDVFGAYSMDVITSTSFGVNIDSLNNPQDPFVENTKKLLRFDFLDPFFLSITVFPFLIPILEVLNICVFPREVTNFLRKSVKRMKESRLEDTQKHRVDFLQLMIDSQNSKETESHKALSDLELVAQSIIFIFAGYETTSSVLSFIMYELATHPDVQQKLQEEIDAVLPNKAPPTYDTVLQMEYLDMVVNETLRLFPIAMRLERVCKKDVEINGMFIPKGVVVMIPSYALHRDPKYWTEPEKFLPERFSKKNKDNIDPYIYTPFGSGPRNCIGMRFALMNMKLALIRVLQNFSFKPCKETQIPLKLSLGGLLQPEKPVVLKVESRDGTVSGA
Description: as §5
(§6) The liver microsomal stability assay, PAMPA, and CYP 450 Inhibition Assay were conducted according to the previous reported procedure.

CYP2D6 = CYP2D6 (Homo sapiens, UniProt P10635); assay: CYP450 inhibition assay; assay type: in vitro ADME
CYP2D6, sequence (P10635 whole entry): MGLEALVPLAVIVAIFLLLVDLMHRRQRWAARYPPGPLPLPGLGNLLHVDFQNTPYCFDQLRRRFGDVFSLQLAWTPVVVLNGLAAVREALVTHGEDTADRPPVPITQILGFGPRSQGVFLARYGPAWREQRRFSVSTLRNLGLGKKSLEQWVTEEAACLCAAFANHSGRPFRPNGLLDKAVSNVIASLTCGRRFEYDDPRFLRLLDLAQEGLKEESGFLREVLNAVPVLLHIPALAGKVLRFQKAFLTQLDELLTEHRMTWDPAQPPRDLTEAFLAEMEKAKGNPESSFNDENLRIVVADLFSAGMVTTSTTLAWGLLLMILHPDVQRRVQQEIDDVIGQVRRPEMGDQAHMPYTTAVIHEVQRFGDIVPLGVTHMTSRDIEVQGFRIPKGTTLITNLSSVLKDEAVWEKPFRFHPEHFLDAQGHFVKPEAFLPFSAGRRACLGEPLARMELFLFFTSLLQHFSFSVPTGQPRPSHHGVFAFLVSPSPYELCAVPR
Description: as §5, §6

CYP2C19 = CYP2C19 (Homo sapiens, UniProt P33261); assay: CYP450 inhibition assay; assay type: in vitro ADME
CYP2C19, sequence (P33261 whole entry): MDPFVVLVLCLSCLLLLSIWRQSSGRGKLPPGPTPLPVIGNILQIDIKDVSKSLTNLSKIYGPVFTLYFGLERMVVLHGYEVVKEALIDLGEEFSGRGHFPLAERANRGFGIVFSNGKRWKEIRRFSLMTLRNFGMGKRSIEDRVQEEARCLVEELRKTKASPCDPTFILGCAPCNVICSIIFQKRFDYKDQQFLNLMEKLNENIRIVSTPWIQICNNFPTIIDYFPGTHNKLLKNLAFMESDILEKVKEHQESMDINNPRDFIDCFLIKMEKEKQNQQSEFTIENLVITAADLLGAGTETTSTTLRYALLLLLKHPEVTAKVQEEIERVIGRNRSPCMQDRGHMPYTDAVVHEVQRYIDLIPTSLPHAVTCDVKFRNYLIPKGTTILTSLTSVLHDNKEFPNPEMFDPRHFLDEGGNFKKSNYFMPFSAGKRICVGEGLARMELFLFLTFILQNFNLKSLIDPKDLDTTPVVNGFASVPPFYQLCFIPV
Description: as §5, §6

CYP1A2 = target: T1, CYP1A2 (Homo sapiens, UniProt P05177); assay: CYP450 inhibition assay; assay type: in vitro ADME
T1 sequence (P05177 1-516): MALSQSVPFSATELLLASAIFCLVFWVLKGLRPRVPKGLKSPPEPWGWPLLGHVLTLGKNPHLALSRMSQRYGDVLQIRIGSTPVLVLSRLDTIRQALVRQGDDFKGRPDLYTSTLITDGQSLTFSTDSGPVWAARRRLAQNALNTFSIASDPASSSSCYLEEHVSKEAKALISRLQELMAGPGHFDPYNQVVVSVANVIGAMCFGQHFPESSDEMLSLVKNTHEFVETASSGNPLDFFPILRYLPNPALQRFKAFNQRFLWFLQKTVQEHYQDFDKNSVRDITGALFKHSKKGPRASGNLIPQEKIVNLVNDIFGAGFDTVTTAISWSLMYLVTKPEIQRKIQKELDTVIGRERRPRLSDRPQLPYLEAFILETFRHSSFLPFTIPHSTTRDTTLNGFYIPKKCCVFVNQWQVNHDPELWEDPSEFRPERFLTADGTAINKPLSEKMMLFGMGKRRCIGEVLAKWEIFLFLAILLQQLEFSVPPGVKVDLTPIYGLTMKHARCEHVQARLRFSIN
Description: as §5, §6

CYP2C9 = CYP2C9 (Homo sapiens, UniProt P11712); assay: CYP450 inhibition assay; assay type: in vitro ADME
CYP2C9, sequence (P11712 whole entry): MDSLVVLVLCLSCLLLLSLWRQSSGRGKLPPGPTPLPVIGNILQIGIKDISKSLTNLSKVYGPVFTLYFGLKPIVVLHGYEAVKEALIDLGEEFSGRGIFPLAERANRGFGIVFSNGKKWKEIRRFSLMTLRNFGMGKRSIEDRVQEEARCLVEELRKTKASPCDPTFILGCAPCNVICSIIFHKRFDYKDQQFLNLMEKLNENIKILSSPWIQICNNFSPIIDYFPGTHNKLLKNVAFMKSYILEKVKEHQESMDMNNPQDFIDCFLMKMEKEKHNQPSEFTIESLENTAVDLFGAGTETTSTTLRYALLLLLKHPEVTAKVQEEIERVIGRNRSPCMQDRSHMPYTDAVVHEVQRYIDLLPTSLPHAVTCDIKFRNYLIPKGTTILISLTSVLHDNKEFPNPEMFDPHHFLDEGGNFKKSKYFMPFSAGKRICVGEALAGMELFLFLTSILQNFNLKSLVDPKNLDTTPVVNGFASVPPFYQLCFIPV
Description: as §5, §6

c-Met = c-Met (Homo sapiens, UniProt P08581); assay: In vitro enzymatic assay (mobility shift assay, ATP at Km)
c-Met, sequence (P08581 956-1390 limits assumed): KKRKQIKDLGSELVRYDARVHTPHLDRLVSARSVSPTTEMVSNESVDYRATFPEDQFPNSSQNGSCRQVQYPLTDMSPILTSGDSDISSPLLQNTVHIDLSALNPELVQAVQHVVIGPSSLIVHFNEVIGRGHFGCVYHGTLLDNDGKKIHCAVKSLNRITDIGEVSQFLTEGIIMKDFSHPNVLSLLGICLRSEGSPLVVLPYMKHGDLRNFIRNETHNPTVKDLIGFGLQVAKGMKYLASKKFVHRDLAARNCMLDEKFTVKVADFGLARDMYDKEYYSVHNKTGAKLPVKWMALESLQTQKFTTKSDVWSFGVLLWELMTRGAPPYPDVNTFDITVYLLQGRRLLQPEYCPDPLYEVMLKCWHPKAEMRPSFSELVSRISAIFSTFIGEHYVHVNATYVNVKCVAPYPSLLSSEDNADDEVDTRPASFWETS
Description: The compound and enzyme solution were added to the assay plate and incubate at room temperature for 10 min. Then the peptide solution was added, incubate at 28 °C for specified period of time, and subsequently added the stop buffer. Data was collected on Calliper, and IC50 values were calculated from the inhibition curves.

[6] = Liver microsomal stability assay; assay type: in vitro ADME, human; conditions: HLM
Description: as §5, §6

[7] = Liver microsomal stability assay; assay type: in vitro ADME, SD rat; conditions: RLM
Description: as §5, §6

[8] = tested on: panel of 18 diversified kinases; assay: Kinase profile against a panel of 18 kinases; conditions: 300 nM; including highly homologous kinases RON and Axl
[9] = tested on: phosphorylation of c-Met, Akt, and Erk 1/2 in EBC-1 cells; assay: Western blot of c-Met signalling; assay type: cell-based, human; conditions: 2 h treatment
Description: Based on the sensitivity of LAH-1 against six cancer cell lines, we then conducted western blot assays to confirm the effect of LAH-1 on c-Met inhibition in cancer cells, and human non-small lung cancer (NSCLC) cell EBC-1 which harbours amplified Met gene was used.
Briefly, EBC-1 cells were seeded at a density of 1.5 × 10^6 cells/well and treated with Compound LAH-1 at the indicated concentration for 2 h. DMSO-treated cells were used as control groups. The whole cellular protein was extracted and measured by BCA protein assay. Total proteins were fractionated on SDS-PAGE and then transferred onto PVDF membranes (Millipore). Membranes were blocked with 5% BSA at room temperature and then incubated overnight at 4 °C with specific primary antibodies (Phospho-Met (CST, #3077S), Met (D1C2) (CST, #8198S), Phospho-Akt (CST, #4060S), Akt (pan) (C67E7) (CST, #4691S), Phospho-p44/42 MAPK (Erk1/2) (CST, #4370S), p44/42 MAPK (Erk1/2) (137F5) (CST, #4695S)) followed by the secondary antibody. Finally, the detection was performed by the Fully Automated Chemiluminescence/Fluorescence Image Analysis Systems (Tanon 5200).

[10] = Egg-PAMPA permeability assay; assay type: in vitro ADME; conditions: incubation 4 h
Description: as §5, §6

[11] = Sprague-Dawley, rat, plasma, iv, 5 mg/kg, male SD rats
[12] = Sprague-Dawley, rat, plasma, po, 20 mg/kg, male SD rats

pIC50 (U87MG cells): 4.81 | AUC(0-inf) (In vivo pharmacokinetics; [11]): 16800 ng·h/mL | Cmax (In vivo pharmacokinetics; [11]): 14900 ng/mL | clearance (In vivo pharmacokinetics; [11]): 19.2 mL/min/kg | half-life (In vivo pharmacokinetics; [11]): 96 min | bioavailability (In vivo pharmacokinetics; Sprague-Dawley, rat, plasma, po 20 mg/kg vs iv 5 mg/kg, male SD rats, read-out: F% (oral bioavailability)): 12.2% | AUC(0-inf) (In vivo pharmacokinetics; [12]): 8210 ng·h/mL | Cmax (In vivo pharmacokinetics; [12]): 4460 ng/mL | Tmax (In vivo pharmacokinetics; [12]): 19.8 min | half-life (In vivo pharmacokinetics; [12]): 132 min | plasma clearance (in words) (In vivo pharmacokinetics; iv, 5 mg/kg, SD rats): moderate plasma clearance | pIC50 (HT-1080 cells; Homo sapiens, HT-1080, 72 h, CCK-8, c-Met non-addicted cell line): < 4.00 | inhibition on KDR (KDR): showed inhibition | inhibition at 10 µM (CYP3A4): 32.2% | inhibition at 10 µM (CYP2D6): 21.5% | inhibition at 10 µM (CYP2C19): 15.6% | inhibition at 10 µM (CYP1A2): 12.8% | inhibition at 10 µM (CYP2C9): 50.7% | pIC50 (c-Met): 7.31 | Remaining (T = 60min) [6]: 88.7% | half-life ([6]; human, liver microsomes): > 125 min | microsomal CLint ([6]; human, liver microsomes, read-out: CL int): < 8.6 µL/min/mg | Remaining (T = 60min) [7]: 81.2% | half-life ([7]; Sprague-Dawley, rat, liver microsomes): > 125 min | microsomal CLint ([7]; Sprague-Dawley, rat, liver microsomes, read-out: CL int): < 8.6 µL/min/mg | selectivity over the other 16 kinases [8]: great selectivity | Permeability ([10]; 10 μM): Moderate | Papp at 4 h, 10 μM ([10]; read-out: Mean Pe): 0.34 ×10⁻⁶ cm/s
SMILES: Cc1cc(=O)n(-c2ccc(F)cc2)nc1C(=O)Nc1ccc(Oc2ccnc(NC(=O)N3CC(O)C3)c2)c(F)c1 [LAH-1, N-(3-fluoro-4-((2-(3-hydroxyazetidine-1-carboxamido)pyridin-4-yl)oxy)phenyl)-1-(4-fluorophenyl)-4-methyl-6-oxo-1,6-dihydropyridazine-3-carboxamide]
pIC50 (SBC-5 cells): 4.79 | pIC50 (EBC-1 cells [1]): 5.94 | pIC50 (Hs746T cells): 5.63 | pIC50 (OE33 cells): 5.37 | inhibition at 100 µM (WI-38 cells): 34.5% | colony formation (EBC-1 cells [2]): significantly inhibited | invasion of HGF-induced NCI-H441 cells (NCI-H441 cells [3]): dose dependent suppressed | migration of HGF-induced NCI-H441 cells (NCI-H441 cells [4]): dose dependent suppressed | early apoptosis (EBC-1 cells [5]): 16.8% | effect on HT-1080 (in words) (HT-1080 cells; cell line with low expression or activation of c-Met): minimal effect | phosphorylation level of c-Met, Akt, and Erk 1/2 [9]: dose-dependent decrease
